Reference: PubChem BioAssay (NCI)
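GI50 = concentration required for 50% inhibition of growth. The concentration for full growth arrest is given as TGI.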

Key:
Assay in all cases: growth of human tumour cells (NCI), 384-well format
COLO 205 colon = tested on: COLO 205 colon
NCI-H322M lung = tested on: NCI-H322M lung
SF-539 CNS = tested on: SF-539 CNS
HOP-92 NSCLC = tested on: HOP-92 NSCLC
MALME-3M melanoma = tested on: MALME-3M melanoma
NCI-H522 lung = tested on: NCI-H522 lung
LOX IMVI melanoma = tested on: LOX IMVI melanoma
OVCAR-3 ovarian = tested on: OVCAR-3 ovarian
OVCAR-4 ovarian = tested on: OVCAR-4 ovarian
OVCAR-8 ovarian = tested on: OVCAR-8 ovarian
MCF7 breast = tested on: MCF7 breast
IGROV1 ovarian = tested on: IGROV1 ovarian
RPMI-8226 leukemia = tested on: RPMI-8226 leukemia
HOP-62 NSCLC = tested on: HOP-62 NSCLC
SK-MEL-28 melanoma = tested on: SK-MEL-28 melanoma
SNB-19 CNS = tested on: SNB-19 CNS
A498 renal = tested on: A498 renal
OVCAR-5 ovarian = tested on: OVCAR-5 ovarian
BT-549 breast = tested on: BT-549 breast
786-0 renal = tested on: 786-0 renal
SK-OV-3 ovarian = tested on: SK-OV-3 ovarian
A549 NSCLC = tested on: A549 NSCLC
MDA-MB-231 breast = tested on: MDA-MB-231 breast
DU-145 prostate = tested on: DU-145 prostate
HCT-15 colon = tested on: HCT-15 colon
KM12 colon = tested on: KM12 colon
HCT-116 colon = tested on: HCT-116 colon
CCRF-CEM leukemia = tested on: CCRF-CEM leukemia
RXF 393 renal = tested on: RXF 393 renal
U251 glioblastoma = tested on: U251 glioblastoma
SF-268 CNS = tested on: SF-268 CNS
SK-MEL-2 melanoma = tested on: SK-MEL-2 melanoma
K-562 leukemia = tested on: K-562 leukemia
MDA-MB-435 melanoma = tested on: MDA-MB-435 melanoma
MOLT-4 leukemia = tested on: MOLT-4 leukemia
TK-10 renal = tested on: TK-10 renal
MDA-MB-468 breast = tested on: MDA-MB-468 breast
CAKI-1 renal = tested on: CAKI-1 renal
M14 melanoma = tested on: M14 melanoma
UO-31 renal = tested on: UO-31 renal
T-47D breast = tested on: T-47D breast
SK-MEL-5 melanoma = tested on: SK-MEL-5 melanoma
NCI-H226 lung = tested on: NCI-H226 lung
HL-60(TB) leukemia = tested on: HL-60(TB) leukemia
SR leukemia = tested on: SR leukemia
UACC-62 melanoma = tested on: UACC-62 melanoma
NCI-H23 lung = tested on: NCI-H23 lung
SW-620 colon = tested on: SW-620 colon
SN12C renal = tested on: SN12C renal
SF-295 CNS = tested on: SF-295 CNS
NCI-H460 NSCLC = tested on: NCI-H460 NSCLC
HCC-2998 colon = tested on: HCC-2998 colon
ACHN renal = tested on: ACHN renal
NCI/ADR-RES ovarian = tested on: NCI/ADR-RES ovarian
UACC-257 melanoma = tested on: UACC-257 melanoma
PC-3 prostate = tested on: PC-3 prostate
HT29 colon = tested on: HT29 colon

C#CCN(c1ccc(C(=O)N[C@@H](CCC(=O)N[C@H](CCC(=O)O)C(=O)O)C(=O)O)cc1)C1CCc2cc3nc(CO)[nH]c(=O)c3cc21 (some centres undefined)
GI50 (COLO 205 colon): 7.84 µM | TGI (COLO 205 colon): > 100 µM | GI50 (NCI-H322M lung): > 100 µM | TGI (NCI-H322M lung): > 100 µM | GI50 (SF-539 CNS): 4.67 µM | TGI (SF-539 CNS): > 100 µM | GI50 (HOP-92 NSCLC): 13.3 µM | TGI (HOP-92 NSCLC): > 100 µM | GI50 (MALME-3M melanoma): > 100 µM | TGI (MALME-3M melanoma): > 100 µM | GI50 (NCI-H522 lung): 3.04 µM | TGI (NCI-H522 lung): 7.83 µM | GI50 (LOX IMVI melanoma): 5.03 µM | TGI (LOX IMVI melanoma): > 100 µM | GI50 (OVCAR-3 ovarian): 9.01 µM | TGI (OVCAR-3 ovarian): > 100 µM | GI50 (OVCAR-4 ovarian): > 100 µM | TGI (OVCAR-4 ovarian): > 100 µM | GI50 (OVCAR-8 ovarian): 4.54 µM | TGI (OVCAR-8 ovarian): > 100 µM | GI50 (MCF7 breast): 0.8 µM | TGI (MCF7 breast): > 100 µM | GI50 (IGROV1 ovarian): 60.3 µM | TGI (IGROV1 ovarian): > 100 µM | GI50 (RPMI-8226 leukemia): 2 µM | TGI (RPMI-8226 leukemia): 4.03 µM | GI50 (HOP-62 NSCLC): 10.5 µM | TGI (HOP-62 NSCLC): 45.8 µM | GI50 (SK-MEL-28 melanoma): 5.13 µM | TGI (SK-MEL-28 melanoma): > 100 µM | GI50 (SNB-19 CNS): 5.96 µM | TGI (SNB-19 CNS): > 100 µM | GI50 (A498 renal): 5.06 µM | TGI (A498 renal): > 100 µM | GI50 (OVCAR-5 ovarian): > 100 µM | TGI (OVCAR-5 ovarian): > 100 µM | GI50 (BT-549 breast): 6.68 µM | TGI (BT-549 breast): > 100 µM | GI50 ([…]-0 renal): 3.69 µM | TGI (786-0 renal): 31.1 µM | GI50 (SK-OV-3 ovarian): 43.2 µM | TGI (SK-OV-3 ovarian): > 100 µM | GI50 (A549 NSCLC): 5.94 µM | TGI (A549 NSCLC): > 100 µM | GI50 (MDA-MB-231 breast): > 100 µM | TGI (MDA-MB-231 breast): > 100 µM | GI50 (DU-145 prostate): 3.49 µM | TGI (DU-145 prostate): 20.3 µM | GI50 (HCT-15 colon): 5.2 µM | TGI (HCT-15 colon): > 100 µM | GI50 (KM12 colon): > 100 µM | TGI (KM12 colon): > 100 µM | GI50 (HCT-116 colon): 4.57 µM | TGI (HCT-116 colon): > 100 µM | GI50 (CCRF-CEM leukemia): 1.97 µM | TGI (CCRF-CEM leukemia): 4.68 µM | GI50 (RXF 393 renal): 8.09 µM | TGI (RXF 393 renal): 71.9 µM | GI50 (U251 glioblastoma): 68.9 µM | TGI (U251 glioblastoma): > 100 µM | GI50 (SF-268 CNS): 4.09 µM | TGI (SF-268 CNS): 27.5 µM | GI50 (SK-MEL-2 melanoma): 99.9 µM | TGI (SK-MEL-2 melanoma): > 100 µM | GI50 (K-562 leukemia): 7.67 µM | TGI (K-562 leukemia): > 100 µM | GI50 (MDA-MB-435 melanoma): > 100 µM | TGI (MDA-MB-435 melanoma): > 100 µM | GI50 (MOLT-4 leukemia): 2.67 µM | TGI (MOLT-4 leukemia): 5.52 µM | GI50 (TK-10 renal): 6.69 µM | TGI (TK-10 renal): > 100 µM | GI50 (MDA-MB-468 breast): 3.72 µM | TGI (MDA-MB-468 breast): 8.76 µM | GI50 (CAKI-1 renal): 8.9 µM | TGI (CAKI-1 renal): > 100 µM | GI50 (M14 melanoma): 8.69 µM | TGI (M14 melanoma): > 100 µM | GI50 (UO-31 renal): 4.46 µM | TGI (UO-31 renal): 62.4 µM | GI50 (T-47D breast): > 100 µM | TGI (T-47D breast): > 100 µM | GI50 (SK-MEL-5 melanoma): 11.6 µM | TGI (SK-MEL-5 melanoma): > 100 µM | GI50 (NCI-H226 lung): 35.4 µM | TGI (NCI-H226 lung): > 100 µM | GI50 (HL-60(TB) leukemia): 3.02 µM | TGI (HL-60(TB) leukemia): 7.56 µM | GI50 (SR leukemia): 1.9 µM | TGI (SR leukemia): 3.38 µM | GI50 (UACC-62 melanoma): 64.6 µM | TGI (UACC-62 melanoma): > 100 µM | GI50 (NCI-H23 lung): 21.9 µM | TGI (NCI-H23 lung): 57.3 µM | GI50 (SW-620 colon): 9 µM | TGI (SW-620 colon): > 100 µM | GI50 (SN12C renal): 3.75 µM | TGI (SN12C renal): 46.9 µM | GI50 (SF-295 CNS): 2.76 µM | TGI (SF-295 CNS): 7 µM | GI50 (NCI-H460 NSCLC): 5.02 µM | TGI (NCI-H460 NSCLC): > 100 µM | GI50 (HCC-2998 colon): 0.386 µM | TGI (HCC-2998 colon): 3.96 µM | GI50 (ACHN renal): 4.25 µM | TGI (ACHN renal): > 100 µM | GI50 (NCI/ADR-RES ovarian): 3.18 µM | TGI (NCI/ADR-RES ovarian): 8.45 µM | GI50 (UACC-257 melanoma): > 100 µM | TGI (UACC-257 melanoma): > 100 µM | GI50 (PC-3 prostate): 9.44 µM | TGI (PC-3 prostate): > 100 µM | GI50 (HT29 colon): 5.23 µM | TGI (HT29 colon): > 100 µM
